According to PubChem BioAssay (NCI):
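Tested at 5 concentrations; 48 h exposure; 96-well plates; endpoints linearly interpolated, else capped at highest concentration. Definition used: TGI = concentration required for complete inhibition of growth.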

Assays:
Test in all cases: NCI tumour cell line growth inhibition, 48 h
CAKI-1 renal = system: CAKI-1 renal
COLO 205 colon = system: COLO 205 colon
DLD-1 colon = system: DLD-1 colon
DMS 114 small cell lung = system: DMS 114 small cell lung
HOP-18 NSCLC = system: HOP-18 NSCLC
KM20L2 colon = system: KM20L2 colon
LXFL 529 NSCLC = system: LXFL 529 NSCLC
M19-MEL melanoma = system: M19-MEL melanoma
SNB-78 CNS = system: SNB-78 CNS
SW-620 colon = system: SW-620 colon
UACC-257 melanoma = system: UACC-257 melanoma
XF 498 CNS = system: XF 498 CNS
DMS 273 small cell lung = system: DMS 273 small cell lung
RXF-631 renal = system: RXF-631 renal

| Compound | TGI (CAKI-1 renal) | TGI (COLO 205 colon) | TGI (DLD-1 colon) | TGI (DMS 114 small cell lung) | TGI (HOP-18 NSCLC) | TGI (KM20L2 colon) | TGI (LXFL 529 NSCLC) | TGI (M19-MEL melanoma) | TGI (SNB-78 CNS) | TGI (SW-620 colon) | TGI (UACC-257 melanoma) | TGI (XF 498 CNS) | TGI (DMS 273 small cell lung) | TGI (RXF-631 renal) |
| --- | --- | --- | --- | --- | --- | --- | --- | --- | --- | --- | --- | --- | --- | --- |
| O=C(O)c1cc(-c2ccccc2O)nc2ccccc12 | > 100 µM | > 100 µM | > 100 µM | > 100 µM | > 100 µM | > 100 µM | > 100 µM | > 100 µM | > 100 µM | > 100 µM | > 100 µM | > 100 µM | – | – |
| NC12CC3CC(C1)CC(Cl)(C3)C2 | – | > 100 µM | > 100 µM | > 100 µM | – | > 100 µM | > 100 µM | > 100 µM | > 100 µM | > 100 µM | > 100 µM | > 100 µM | > 100 µM | > 100 µM |
| COC1=CC(C2c3cc4c(cc3[C@@H](Nc3ccc([N+](=O)[O-])cc3)C3COC(=O)[C@H]23)OCO4)=CC(=O)C1=O (stereo partly drawn) | 25.6 µM | 73.2 µM | > 96.7 µM | 8.28 µM | > 100 µM | > 62.6 µM | > 78.7 µM | 45.2 µM | > 100 µM | > 66.4 µM | > 100 µM | 50.7 µM | 5.12 µM | 14.1 µM |
| COc1cccc(/C(C=O)=C(\Cl)c2ccc(OC)c(OC)c2)c1 | 45.1 µM | 27.5 µM | 25.5 µM | 30.5 µM | 27.8 µM | 44.1 µM | 24.4 µM | 23.4 µM | 37.7 µM | 29.6 µM | 29.3 µM | 31.1 µM | 27.3 µM | – |
| CC(=O)OC1OC2C(NC(=O)OC(C)(C)C)C1CC2(OCc1ccccc1)OCc1ccccc1 (stereo not drawn) | > 100 µM | 41.5 µM | – | 58 µM | 46.5 µM | 39.3 µM | > 100 µM | > 74.1 µM | > 100 µM | > 100 µM | 37.9 µM | 41.9 µM | 69.5 µM | > 100 µM |
| NC(=O)c1csc(CCCCCCc2nc(C(N)=O)cs2)n1 | > 100 µM | > 100 µM | > 100 µM | > 100 µM | > 100 µM | > 100 µM | > 100 µM | 49.3 µM | > 100 µM | > 60.7 µM | > 100 µM | – | > 100 µM | > 100 µM |
| CN(C)CCCSc1c2ccccc2nc2cc(NCC(=O)Nc3ccccc3-c3ccccc3NC(=O)CNc3ccc4c(SCCCN(C)C)c5ccccc5nc4c3)ccc12 | > 100 µM | > 100 µM | > 100 µM | > 100 µM | > 100 µM | > 100 µM | > 100 µM | > 100 µM | > 100 µM | > 100 µM | > 100 µM | > 100 µM | > 100 µM | – |
| Cn1c(=O)c2c(nc(C[N+]3([O-])CCOCC3)n2C)n(C)c1=O | > 100 µM | > 100 µM | > 100 µM | > 100 µM | – | > 100 µM | > 100 µM | > 100 µM | – | > 100 µM | > 100 µM | > 100 µM | > 100 µM | – |
| Cc1nccc2c1cnc1ccnn12 | > 100 µM | > 100 µM | > 100 µM | > 100 µM | – | > 100 µM | > 100 µM | > 100 µM | > 100 µM | > 100 µM | > 100 µM | – | > 100 µM | > 100 µM |
| O=C1C(Cl)C(c2ccc(Cl)cc2)N1n1cnc2ccccc2c1=O (stereo not drawn) | > 100 µM | > 100 µM | > 100 µM | > 100 µM | > 100 µM | > 100 µM | > 100 µM | > 100 µM | > 100 µM | > 100 µM | > 100 µM | > 100 µM | > 100 µM | – |
| COC(=O)[C@H]1C=C[C@@H](C)n2c(=O)c3ccccc3c(=O)n21 | > 100 µM | > 100 µM | > 100 µM | > 100 µM | – | > 100 µM | > 100 µM | > 100 µM | > 100 µM | > 100 µM | > 100 µM | > 100 µM | > 100 µM | – |
| CCOC(=O)C1=C(O)c2ccccc2C(=O)C1=O | > 100 µM | > 100 µM | > 100 µM | > 100 µM | > 100 µM | – | – | 54.4 µM | > 100 µM | > 100 µM | > 100 µM | > 100 µM | > 100 µM | – |
| NC(=O)C12C3C4C1C1C2C3C41C(N)=O (stereo not drawn) | > 100 µM | > 100 µM | > 100 µM | > 100 µM | > 100 µM | > 100 µM | > 100 µM | > 100 µM | – | > 100 µM | > 100 µM | – | > 100 µM | – |
| CCOC(=O)c1nc2ccc(Cl)cc2c2c1CCO2 | > 100 µM | > 100 µM | > 100 µM | > 100 µM | > 100 µM | > 100 µM | > 100 µM | > 100 µM | > 100 µM | > 100 µM | > 100 µM | > 100 µM | > 100 µM | – |
